From ChEMBL document CHEMBL3600367, “Anti-plasmodial activity of bradykinin and analogs” (Bioorg Med Chem Lett, 2015)
Calls of active or inactive are those of the source. No cut-off for these calls is given here. Residues, ends and D or L forms follow the SMILES beside them.

Assays:
Plasmodium gallinaceum = test: Antiplasmodial activity against mature Plasmodium gallinaceum sporozoites isolated from Aedes aegypti RED assessed as increase in membrane permeability at 60 umol/L after 1 hr by propidium iodide staining-based inverted fluorescence microscopic analysis; type: functional
[1] = Metabolic stability in plasma (unknown origin); type: ADME, cell-free
Plasmodium falciparum = test: Antiplasmodial activity against Plasmodium falciparum W2 schizonts infected in human erythrocytes assessed as appearance of intracellular ring forms at 10^-8 mol/L after 24 hrs by Diff quick staining-based light microscopic analysis; type: functional, organism-based

With `CC(C)C[C@@H](N)C(=O)N1CCC[C@@H]1C(=O)N[C@H](CO)C(=O)N[C@H](CCC(=O)O)C(=O)N[C@H](Cc1ccccc1)C(=O)N[C@H](CCCNC(=N)N)C(=O)N[C@@H](C(=O)N1CCC[C@@H]1C(=O)N[C@H](CC(C)C)C(=O)NCC(=O)N1CCC[C@@H]1C(=O)N[C@H](CCCNC(=N)N)C(N)=O)C(C)C` the Activity (Plasmodium gallinaceum) was “Active”, the Stability [1] was “Stable” and the Activity (Plasmodium falciparum) was “inactive”.
For `CC(C)C[C@@H](NC(=O)[C@H]1CCCN1C(=O)[C@H](NC(=O)[C@@H](CCCNC(=N)N)NC(=O)[C@@H](CO)NC(=O)[C@@H](Cc1ccccc1)NC(=O)[C@@H](CO)NC(=O)[C@H]1CCCN1C(=O)[C@@H](CC(C)C)NC(=O)[C@H](N)CCCNC(=N)N)C(C)C)C(=O)NCC(=O)N1CCC[C@@H]1C(=O)N1CCC[C@@H]1C(=O)N[C@H](CCCNC(=N)N)C(N)=O`, the Stability [1] was “Stable” and the Activity (Plasmodium falciparum) was “inactive”.
With `CC(C)C[C@H](NC(=O)[C@@H]1CCCN1C(=O)[C@H](CO)NC(=O)[C@H](CCC(=O)O)NC(=O)[C@H](Cc1ccccc1)NC(=O)[C@H](CCCNC(=N)N)NC(=O)[C@@H](NC(=O)[C@@H]1CCCN1C(=O)[C@H](CC(C)C)NC(=O)CNC(=O)[C@@H]1CCCN1C(=O)[C@@H](N)CCCNC(=N)N)C(C)C)C(N)=O` (H-RPGLPVRFESPL-NH2) the Activity (Plasmodium gallinaceum) was “inactive” and the Activity (Plasmodium falciparum) was “inactive”.
In the case of `CC(C)C[C@H](NC(=O)[C@@H]1CCCN1C(=O)[C@H](CO)NC(=O)[C@H](Cc1ccccc1)NC(=O)[C@H](CO)NC(=O)[C@H](CCCNC(=N)N)NC(=O)[C@@H](NC(=O)[C@@H]1CCCN1C(=O)[C@H](CC(C)C)NC(=O)CNC(=O)[C@@H]1CCCN1C(=O)[C@@H]1CCCN1C(=O)[C@@H](N)CCCNC(=N)N)C(C)C)C(=O)N[C@@H](CCCNC(=N)N)C(N)=O` (H-RPPGLPVRSFSPLR-NH2), the Activity (Plasmodium gallinaceum) is reported as “Active” and the Activity (Plasmodium falciparum) is reported as “inactive”.
In the case of `CC[C@H](C)[C@H](NC(=O)[C@H](Cc1ccc(O)cc1)NC(=O)[C@@H](NC(=O)[C@H](CCCNC(=N)N)NC(=O)[C@@H](N)CC(=O)O)C(C)C)C(=O)N[C@@H](Cc1cnc[nH]1)C(=O)N1CCC[C@H]1C(=O)N[C@@H](Cc1ccccc1)C(=O)O` [ANGIOTENSIN II], the Activity (Plasmodium gallinaceum) is reported as 88%.
In the case of `N=C(N)NCCC[C@H](NC(=O)[C@H](Cc1ccccc1)NC(=O)[C@@H]1CCCN1C(=O)[C@H](CO)NC(=O)[C@H](Cc1ccccc1)NC(=O)CNC(=O)[C@@H]1CCCN1C(=O)[C@@H]1CCCN1C(=O)[C@@H](N)CCCNC(=N)N)C(=O)O` [BRADYKININ] (H-RPPGFSPFR-OH), the Activity (Plasmodium gallinaceum) is reported as 98% and the Activity (Plasmodium falciparum) is reported as “inactive”.
